What all share (assay): NCI anticancer screen, dose series, 48 h
Assay [1] deals with CCRF-CEM.
In assay [2] the test system is SF-268.
The test system of assay [3] is ACHN.
Assay [4] deals with NCI-H226.
The subject of assay [5] is OVCAR-3.
Assay [6] relates to HCC 2998.
In assay [7] the test system is HCT-116.
In assay [8] the test system is U-251.
Assay [9] has as its system MDA-MB-435.
Assay [10] has as its system UACC-62.
Assay [11] has as its system HCT-15.
In assay [12] the test system is SNB-19.
Assay [13] deals with SF-295.
The subject of assay [14] is 786-0.
Assay [15] deals with RPMI-8226.
For assay [16], the system named is HOP-92.
The subject of assay [17] is SK-MEL-5.
Assay [18] deals with NCI/ADR-RES.
Assay [19] relates to SK-MEL-2.
In assay [20] the test system is IGROV-1.

Consider 10 compounds from ChEMBL document CHEMBL1201862, “PubChem BioAssay data set” (2004).

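All cell lines were grown in 96-well plates and treated with compound for 48 hours. GI50 is the concentration that inhibits growth by half.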 The source made the active and inactive calls. Rule as the data show it: active = GI50 up to about 1.1 µM and inactive = higher.

With `COc1c2occc2c(N)c2ccc(=O)oc12`, the GI50 in [1] is 93.5 µM (inactive); in assay [2], > 100 µM (inactive); in assay [3], > 100 µM (inactive); in assay [4], 29.5 µM (inactive); in assay [5] it was > 100 µM (inactive); in assay [6], > 100 µM (inactive). For the same compound, the GI50 in [7] is > 100 µM (inactive); in assay [8] it was > 100 µM (inactive); in [9], > 100 µM (inactive); in [10] it was 41.6 µM (inactive); in assay [11], greater than 100 µM; in assay [12], > 100 µM (inactive). In addition, the GI50 in assay [13] was > 100 µM (inactive); in assay [14], > 100 µM (inactive); in assay [15], > 100 µM (inactive); in [16] it was > 100 µM (inactive); in assay [17], 35 µM (inactive); in assay [18] it was > 100 µM (inactive). Further, the GI50 in [19] and in [20] was > 100 µM (inactive) in each case.
For the compound `Cc1ccc(C)c(C2NC(=O)c3ccccc3N2)c1` (stereo not given), the GI50 is 0.753 µM (active) in assay [1]; 3.27 µM (inactive) in assay [2]; 4.83 µM (inactive) in assay [3]; 2.95 µM (inactive) in assay [4]; 0.265 µM (active) in assay [5]; 2.8 µM (inactive) in assay [6]. Further, the GI50 in assay [7] is 0.601 µM (active); in assay [8] it was 1.21 µM (inactive); in assay [9], 0.0792 µM (active); in [10], 1.31 µM (inactive); in assay [11], 0.515 µM; in [12], 2.1 µM (inactive). The GI50 in assay [13] was 1.12 µM (inactive); in [14], 1.76 µM (inactive); in assay [15], 2.11 µM (inactive); in assay [16], 37.2 µM (inactive); in assay [17], 0.335 µM (active); in [18] it was 0.7 µM (active). Also, the GI50 in assay [19] was 1.29 µM (inactive); in assay [20] it was 1.13 µM (inactive).
Regarding `COc1ccc2nc3cccc([N+](=O)[O-])c3c(NCCO)c2c1`, the GI50 in assay [1] is 0.0479 µM (active); in [2] it was 0.0157 µM (active); in [3] it was 0.0105 µM (active); in assay [4], 0.0378 µM (active); in assay [5], 0.0149 µM (active); in assay [6], 0.0146 µM (active). Moreover, the GI50 in assay [7] is 0.00178 µM (active); in assay [8], 0.0211 µM (active); in assay [9] it was 0.00656 µM (active); in assay [10], 0.0182 µM (active); in [11], 0.00594 µM; in assay [12] it was 0.0486 µM (active). The GI50 in assay [13] was 0.0684 µM (active); in assay [14] it was 0.0112 µM (active); in assay [15] it was 0.00235 µM (active); in assay [16] it was 0.0195 µM (active); in assay [17], 0.0188 µM (active); in [18], 0.0182 µM (active). The GI50 in assay [19] is 0.0175 µM (active); in assay [20], 0.162 µM (active).
As for `O=C1NC2(CCNCC2)Oc2ccccc21`, the GI50 in [1], in assay [2], in [3], in assay [4], in [5] and in [6] was > 100 µM (inactive) throughout. Besides, the GI50 in assay [7] is > 100 µM (inactive); in assay [8], > 100 µM (inactive); in assay [9], > 100 µM (inactive); in assay [10] it was > 100 µM (inactive); in assay [11] it was greater than 100 µM; in [12] it was > 100 µM (inactive). Also, the GI50 in [13], in assay [14], in [15], in assay [16], in assay [17] and in assay [18] was > 100 µM (inactive) in each case. The GI50 in [19] and in assay [20] was > 100 µM (inactive) each time.
`CC1OC(O)CC(N(C)C)C1O.CC1OC(O)CCC1O.CCC1CC(O)c2c(O)c3c(c(O)c2C1O)C(=O)c1cccc(O)c1C3=O` (stereo not given): the GI50 is 0.0223 µM (active) in [1]; 0.0335 µM (active) in assay [2]; 0.0159 µM (active) in assay [3]; 0.0168 µM (active) in assay [4]; 0.021 µM (active) in [5]; 0.0197 µM (active) in assay [6]. Besides, the GI50 in [7] is 0.00771 µM (active); in assay [8] it was 0.0211 µM (active); in assay [9] it was 0.023 µM (active); in assay [10], 0.0197 µM (active); in [11], 0.0381 µM; in assay [12] it was 0.0301 µM (active). Moreover, the GI50 in assay [13] is 0.0323 µM (active); in assay [14], 0.0124 µM (active); in [15], 0.0208 µM (active); in assay [16] it was 0.01 µM (active); in assay [17], 0.0177 µM (active); in assay [18], 0.251 µM (active). Besides, the GI50 in assay [19] is 0.0212 µM (active); in [20], 0.0284 µM (active).
`O=C1CCCCc2cccc(O)c21`: the GI50 in assay [1], in [2], in assay [3], in [4], in assay [5] and in assay [6] was > 100 µM (inactive) each time. Further, the GI50 was > 100 µM (inactive) in [7]; > 100 µM (inactive) in [8]; > 100 µM (inactive) in assay [9]; > 100 µM (inactive) in assay [10]; greater than 100 µM in assay [11]; > 100 µM (inactive) in assay [12]. Further, the GI50 in assay [13], in assay [14], in assay [15], in [16], in assay [17] and in assay [18] was > 100 µM (inactive) in each case. For the same compound, the GI50 in assay [19] and in [20] was > 100 µM (inactive) throughout.
`CC(=O)N(C(C)=O)n1c(Cc2ccc(C)cc2)nn(C(C)=O)c1=O`: the GI50 in [1], in assay [2], in assay [3], in [4], in assay [5] and in [6] was > 100 µM (inactive) each time. Besides, the GI50 in assay [7] was > 100 µM (inactive); in assay [8] it was > 100 µM (inactive); in [9], > 100 µM (inactive); in assay [10] it was > 100 µM (inactive); in assay [11] it was greater than 100 µM; in assay [12], > 100 µM (inactive). Besides, the GI50 in [13], in [14], in assay [15], in [16], in [17] and in [18] was > 100 µM (inactive) throughout. The GI50 in assay [19] and in assay [20] was > 100 µM (inactive) in each case.
Take `CCOC(=O)c1ccc(/N=C2\SC(=S)N(c3ccc(F)cc3)\C2=N/c2ccc(C(=O)OCC)cc2)cc1`: the GI50 in [1] is 6.95 µM (inactive); in assay [2], 7.4 µM (inactive); in [3], 13.6 µM (inactive); in assay [4], 21.8 µM (inactive); in assay [5] it was 20 µM (inactive); in assay [6], 40.7 µM (inactive). The GI50 in [7] is 14.2 µM (inactive); in assay [8] it was 20.6 µM (inactive); in assay [9], 17.9 µM (inactive); in assay [10], 8.07 µM (inactive); in [11], 4.29 µM; in assay [12], 65.2 µM (inactive). In addition, the GI50 is 48.3 µM (inactive) in assay [13]; 17.1 µM (inactive) in assay [14]; 9.42 µM (inactive) in [15]; 7.76 µM (inactive) in [16]; 10.5 µM (inactive) in assay [17]; 17 µM (inactive) in assay [18]. In addition, the GI50 was 12.9 µM (inactive) in assay [19] and 14.4 µM (inactive) in assay [20].
As for `O=C(CCCN1CCC2(CC1)OC(=O)N(c1ccccc1)C2=O)c1ccccc1`, the GI50 in assay [1], in [2], in assay [3], in assay [4], in assay [5] and in [6] was > 100 µM (inactive) in each case. In addition, the GI50 in assay [7] is > 100 µM (inactive); in assay [8] it was > 100 µM (inactive); in assay [9], > 100 µM (inactive); in assay [10], > 100 µM (inactive); in assay [11], greater than 100 µM; in assay [12], > 100 µM (inactive). Moreover, the GI50 in assay [13], in assay [14], in assay [15], in assay [16], in assay [17] and in [18] was > 100 µM (inactive) throughout. Also, the GI50 in assay [19] and in assay [20] was > 100 µM (inactive) in each case.
As to `NCCCN(CCCCN(CCCN)C(=O)OCc1ccccc1)C(=O)OCc1ccccc1`, the GI50 is 47 µM (inactive) in [1]; 35.3 µM (inactive) in assay [2]; > 100 µM (inactive) in [3]; > 100 µM (inactive) in assay [4]; 43.2 µM (inactive) in assay [5]; 50 µM (inactive) in assay [6]. The GI50 was > 100 µM (inactive) in [7]; > 100 µM (inactive) in assay [8]; > 100 µM (inactive) in [9]; 71.4 µM (inactive) in assay [10]; greater than 100 µM in assay [11]; 81.8 µM (inactive) in [12]. Also, the GI50 in [13] is > 100 µM (inactive); in assay [14], > 100 µM (inactive); in assay [15] it was 73.3 µM (inactive); in assay [16], 29.9 µM (inactive); in [17], > 100 µM (inactive); in assay [18], > 100 µM (inactive). The GI50 is > 100 µM (inactive) in [19] and 24.2 µM (inactive) in assay [20].
